The values that follow come from ChEMBL document CHEMBL1121672, “Folate antagonists. 19. Synthesis and antimalarial effects of 6-(arylthio)-2,4-pteridinediamines” (1981).

Assay type in all cases: functional
For experiment [1], the system named is Staphylococcus aureus. As to the kind of experiment: Compound tested in vitro for antibacterial activity against Staphylococcus aureus (S18713).
Another experiment has as its system Enterococcus faecalis. As to the kind of experiment: Compound tested in vitro for antibacterial activity against Streptococcus faecalis(MGH-2).
Experiment [2] deals with Staphylococcus aureus. The experiment can be described thus: Compound tested in vitro for antibacterial activity against Staphylococcus aureus(UC-76).

Converted amounts (≈) assume the structure as drawn.

On to `Nc1nc(N)c2nc(Sc3cccc4ccccc34)cnc2n1`, for which the figures for the MIC with Staphylococcus aureus [1], in the experiment with Enterococcus faecalis and against Staphylococcus aureus [2] were 1.5 µg/mL (≈ 4.68 µM), under 0.25 µg/mL and under 0.25 µg/mL, respectively.
In the case of `Nc1nc(N)c2nc(Sc3cc(Cl)c(Cl)cc3Cl)cnc2n1`, the figures for the MIC in the experiment with Staphylococcus aureus [1], in the experiment on Enterococcus faecalis and in the experiment with Staphylococcus aureus [2] were over 25 µg/mL, 5 µg/mL (≈ 13.4 µM) and over 25 µg/mL, respectively.
For the molecule `Nc1nc(N)c2nc(Sc3ccc(Cl)c(Cl)c3)cnc2n1`, the MIC is over 25 µg/mL against Staphylococcus aureus [1], 2 µg/mL (≈ 5.9 µM) in the experiment with Enterococcus faecalis and over 25 µg/mL in the experiment on Staphylococcus aureus [2].
With `Nc1nc(N)c2nc(Sc3cccc(C(F)(F)F)c3)cnc2n1`, the MIC against Staphylococcus aureus [1], against Enterococcus faecalis and in the experiment with Staphylococcus aureus [2] was under 0.25 µg/mL each time.
With `CN(C)/C=N\c1nc(/N=C/N(C)C)nc2ncc(Sc3ccc(Cl)c(Cl)c3)nc12`, the MIC against Staphylococcus aureus [1] is over 25 µg/mL; in the experiment with Enterococcus faecalis, under 0.25 µg/mL; in the experiment on Staphylococcus aureus [2] it was over 25 µg/mL.
As to `Nc1nc(N)c2nc(Sc3ccc4ccccc4c3)cnc2n1`, the MIC in the experiment with Staphylococcus aureus [1] was over 25 µg/mL; against Enterococcus faecalis it was 1.5 µg/mL (≈ 4.68 µM); in the experiment on Staphylococcus aureus [2] it was over 25 µg/mL.
For the molecule `COc1ccc(Sc2cnc3nc(N)nc(N)c3n2)cc1`, the MIC in the experiment on Staphylococcus aureus [1] was 2 µg/mL (≈ 6.66 µM); against Enterococcus faecalis, under 0.25 µg/mL; in the experiment on Staphylococcus aureus [2], 2 µg/mL (≈ 6.66 µM).
